We go through 3 substances from patent US10653747B2, “ApoE mimetic peptides and higher potency to clear plasma cholesterol” (UAB RESEARCH FOUNDATION, priority 2014, dated 2020).

Ahx = NCCCCCC(=O)O

The subject of one experiment is VLDL. Put plainly: Interaction of peptide with VLDL, displacement of apo E from VLDL. As for the experimental part:
It was determined that in MEF 1 cells with induced LDL receptors, LDL internalization was enhanced three, five and seven times by Ac-mE-18A-NH2, Ac-hE-18A-NH2, and Ac-hE(R)-18A-NH2 respectively. All three peptides increased degradation of LDL by 100 percent. […] However, only Ac-hE-18A-NH2-associated VLDL enhanced the uptake of VLDL six fold and degradation three fold compared to VLDL alone in spite of the absence of apoE. The LDL binding to fibroblasts in the presence of these peptides was not saturable, however, over the LDL concentration range studied.

Experiment [1] has as its system MEF 1 cells with induced LDL receptors. Kind of experiment: Uptake and degradation of human LDL by cells (LDL internalization, LDL degradation). In kind it is cell-based. From the text:
(§1) To test the hypothesis that a minimal arginine-rich Apo E receptor binding domain (141-150) was sufficient to enhance low density lipoprotein (LDL) and very low density lipoprotein (VLDL) uptake and clearance when covalently linked to a class A amphipathic helix, a peptide was synthesized in which the receptor binding domain of human Apo E, LRKLRKRLLR (SEQ ID NO:4) (hApo E[141-150] also referred to as “hE”), was linked to 18A, a well characterized high affinity lipid-associating peptide (DWLKAFYDKVAEKLKEAF (SEQ ID NO:5), also referred to as “18A”) to produce a peptide denoted as hApo E[141-150]-18A (also referred to as “hE-18A”) (see U.S. Pat. No. 6,506,880, which is hereby incorporated by reference in its entirety for its teaching of specific Apo E mimetics and their uses). Also synthesized was an end protected analog of hE-18A, denoted Ac-hE18A-NH2. […] The effect of the dual character peptides on the uptake and degradation of human LDL/VLDL by cells was then determined.
(§2) It was determined that in MEF 1 cells with induced LDL receptors, LDL internalization was enhanced three, five and seven times by Ac-mE-18A-NH2, Ac-hE-18A-NH2, and Ac-hE(R)-18A-NH2 respectively. […]

For the next experiment, the system named is cells. Put plainly: Uptake and degradation of peptide-associated VLDL by cells. In kind it is cell-based. The following applies: peptide-associated VLDL compared to VLDL alone, in the absence of apoE.
Source text: as §1, §2

In another experiment the test system is plasma cholesterol. Put plainly: Plasma cholesterol reduction in apoE null mice after a single dose. The note with it: single dose in saline vehicle, at both 50 and 100 μg/mouse. It is filed as in vivo. As for the experimental part: The study was carried out in apoE null mice (n=4 animals/group). The time points show the plasma cholesterol levels at the indicated times following a single dose administration. A single dose was administered using a saline vehicle.

For “Ac-D-W-L-K-A-F-Y-D-K-V-A-E-K-L-K-E-A-F-NH2 (Ac-DWLKAFYDKVAEKLKEAF-NH2) [Ac-18A-NH2, control peptide; 18A is the lipid-associating peptide …, reference compound]”, the “displacement of apo E from VLDL” value with VLDL is “interacted with VLDL to cause a displacement of apo E from VLDL”.
On to “Ac-LRKLRKRLLRDWLKAFYDKVAEKLKEAF-NH2 [Ac-hE-18A-NH2]”, for which, in experiment [1], the LDL internalization enhanced entry is “five” and the “increased degradation of LDL” value stood at 100%. Further, in the experiment with cells, the “enhanced degradation of VLDL” value is “three” and the “enhanced uptake of VLDL” value is given as “six”. Besides, the “displacement of apo E from VLDL” value in the experiment on VLDL is “interacted with VLDL to cause a displacement of apo E from VLDL”.
In the case of “Ac-Aha-LRRLRRRLLR-DWLKAFYDKVAEKLKEAF-NH2 ({Ac-Ahx}-LRRLRRRLLRDWLKAFYDKVAEKLKEAF-NH2; SMILES CC(=O)NCCCCCC(=O)N[C@@H](CC(C)C)C(=O)N[C@@H](CCCNC(=N)N)C(=O)N[C@@H](CCCNC(=N)N)C(=O)N[C@@H](CC(C)C)C(=O)N[C@@H](CCCNC(=N)N)C(=O)N[C@@H](CCCNC(=N)N)C(=O)N[C@@H](CCCNC(=N)N)C(=O)N[C@@H](CC(C)C)C(=O)N[C@@H](CC(C)C)C(=O)N[C@@H](CCCNC(=N)N)C(=O)N[C@@H](CC(=O)O)C(=O)N[C@@H](Cc1c[nH]c2ccccc12)C(=O)N[C@@H](CC(C)C)C(=O)N[C@@H](CCCCN)C(=O)N[C@@H](C)C(=O)N[C@@H](Cc1ccccc1)C(=O)N[C@@H](Cc1ccc(O)cc1)C(=O)N[C@@H](CC(=O)O)C(=O)N[C@@H](CCCCN)C(=O)N[C@H](C(=O)N[C@@H](C)C(=O)N[C@@H](CCC(=O)O)C(=O)N[C@@H](CCCCN)C(=O)N[C@@H](CC(C)C)C(=O)N[C@@H](CCCCN)C(=O)N[C@@H](CCC(=O)O)C(=O)N[C@@H](C)C(=O)N[C@@H](Cc1ccccc1)C(N)=O)C(C)C) [AC-Aha-[R]hE18A-NH2]”, the reducing plasma cholesterol result in the experiment with plasma cholesterol is reported as “highly effective”.
